Experimental data published in PMC4467156, “A new chemical inhibitor of angiogenesis and tumorigenesis that targets the VEGF signaling pathway upstream of Ras” (Oncotarget, 2015).

Assays:
3T3 cells = assay: 3H-thymidine incorporation, 3T3; assay type: cell-based; conditions: 3T3 fibroblasts
Description: Cells were treated with molecules in complete medium. After 22 h, 1 μCi per well H^3 thymidine was added for 2 hours. Cells are then fixed by 10% trichloroacetic acid and harvested with 0.2N NaOH, 1% SDS. Radioactivity was measured in a beta counter.

LLC/2 tumor = assay: Mouse LLC/2 tumor model; assay type: in vivo
Description: We chose this model because of its rapid growth in syngenic mice and its strong dependence on angiogenesis. LLC/2 cells (10^6 in 50 μL medium) were subcutaneously injected into the right flank of […] mice. Seven days after tumor inoculation, mice were given an intraperitoneal (i.p.) injection of either solvent (1.7% DMSO) or COB223 every other day. Tumor size was measured with calipers, and the volume was calculated according to the formula (L*w^2)/2 where L and […] stand for length and width respectively. All mice were killed 21 days after tumor grafting.
Tumors collected after animal sacrifice were split into two parts and fixed either in 4% paraformaldehyde (v/v) or in formalin fixative for 24 h at 4°C and embedded in paraffin and then cut into 7 μm sections. Sections were stained using specific antibodies and the avidin–biotin immunoperoxidase detection method. Endogenous peroxidase activity was quenched by pretreatment with 3% (v/v) hydrogen peroxide in methanol for 20 min. For endothelial immunohistochemistry detection, CD31 antibody (MEC13.3, BD Pharmingen) was incubated for 2 h at room temperature. The tissue sections were subsequently washed three times with PBS and incubated with biotinylated rabbit anti-rat IgG (1:250 dilution in blocking solution; Sigma-Aldrich, Saint-Quentin Fallavier, France) for 1 h at room temperature. After three PBS washes, the slides were incubated with an avidin: biotin complex (Vectastain ABC kit; Vector Laboratories, Burlingame, CA) for 45 minutes. After a final PBS wash, the immunoreactive proteins were visualized after the addition of 3,3′-diaminobenzidine (Dako, Trappes, France) for 2 min and then counterstained with hematoxylin. Control sections were treated without primary antibody.

PKCβI = PKCβI (Homo sapiens, UniProt P05771); assay: In vitro kinase assay PKCβI; assay type: biochemical; conditions: concentrations up to 50 μM
Chain of PKCβI (P05771 whole entry): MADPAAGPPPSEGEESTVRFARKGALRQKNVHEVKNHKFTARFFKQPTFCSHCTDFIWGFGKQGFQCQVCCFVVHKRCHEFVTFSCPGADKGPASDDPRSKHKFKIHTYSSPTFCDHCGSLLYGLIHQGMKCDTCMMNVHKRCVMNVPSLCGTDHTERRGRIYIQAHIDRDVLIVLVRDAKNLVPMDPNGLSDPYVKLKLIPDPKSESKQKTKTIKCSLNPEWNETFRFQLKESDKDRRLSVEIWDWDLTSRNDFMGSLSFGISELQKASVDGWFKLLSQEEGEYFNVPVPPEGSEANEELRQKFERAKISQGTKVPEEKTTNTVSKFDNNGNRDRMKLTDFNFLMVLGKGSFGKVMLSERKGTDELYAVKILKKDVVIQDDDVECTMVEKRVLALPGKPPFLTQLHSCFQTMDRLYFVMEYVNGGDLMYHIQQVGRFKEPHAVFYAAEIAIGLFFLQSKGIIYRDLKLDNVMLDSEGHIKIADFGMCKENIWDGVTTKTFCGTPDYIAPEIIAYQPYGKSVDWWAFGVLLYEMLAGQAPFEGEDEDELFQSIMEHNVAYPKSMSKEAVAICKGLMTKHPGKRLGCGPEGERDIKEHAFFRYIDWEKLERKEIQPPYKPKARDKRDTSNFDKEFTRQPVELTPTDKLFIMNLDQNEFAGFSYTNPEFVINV
Description: We first wondered whether COB223 required to be internalized to exert its biological effect. For this, we synthesized a covalent complex between BSA and COB223 and purified it. […] In vitro kinase assays were performed with a panel of purified protein-kinases involved in mitogenic signaling, including VEGFR2, FGFR1, FGFR2, PDGFRß, Met, Raf, MEK1, ERK1, ERK2, PKCα, PKCβI, PKCβII, PKCζ as indicated in Table 2. […] We then analyzed the effect of COB223 on VEGF-induced phosphorylations of VEGFR2, MEK and ERK1/2 (Figure 9). […] (Figure 9A, 9B). […] It was also specific of the p42/p44 MAP kinase pathway as activation of p38 MAP kinase phosphorylation in HUVEC cells by VEGF or serum was unaffected by COB223 (data not shown). The activation of src phosphorylation by VEGF in HUVECs was also unaffected by COB223 (data not shown).

[1] = system: embryoid bodies derived from mouse embryonic stem cells; assay: Vascular sprouting of embryoid bodies into collagen gels; assay type: cell-based; conditions: 12.5 μM COB223 added at day 6
Description: CJ7 cells (1000 cells/well; 12-well plates) were allowed to differentiate in collagen gels in Iscove's medium containing Glutamax (Iscove's modified Dulbecco's medium; Invitrogen) supplemented with 1.2 mg/mL collagen I (BD Biosciences, Bedford, MA), 15% fetal calf serum (Invitrogen), 450 μM monothioglycerol (Sigma-Aldrich), 10 μg/mL insulin (Roche Diagnostics, Basel, Switzerland), 50 U/mL penicillin and 50 μg/mL streptomycin (Invitrogen), as previously described. A cocktail of growth factors was also added containing 50 ng/mL human VEGF-A (AbCys) and 100 ng/mL human FGF-2 (a generous gift from Dr. A. Baird, Whittier Institute, La Jolla, CA). At day 6, molecules were added with a novel addition of 50 ng/mL human VEGF-A and 100 ng/mL human FGF-2. Differentiation was allowed during 11 days.
Collagen gels containing EBs were dehydrated and fixed in 4% paraformaldehyde during 15 min at room temperature. […] For quantitation of endothelial sprouting, images were captured with a digital camera and measurement of the total length of endothelial sprouts was achieved by morphometric analysis using ImageJ software.

HMVECd cells = assay: Cell viability WST-1, HMVECd; assay type: cell-based, human; conditions: confluent HMVECd, 24 h at 37°C
Description: Once they had reached confluency, cells were kept for 24 hours in medium supplemented with 0.5% FCS (LLC/2 and 3T3 cells) or 2.5% FCS (HUVEC and HMVEC-d cells), in the presence of COB223 at different concentrations. WST-1 assay (Roche Diagnostic, Meylan, France) was then performed according to the manufacturer's instructions.

[2] = non-necrotic part of treated tumors

## CN(C)c1cccc2c(S(=O)(=O)NCCCN3CCN(CCCNC(=O)OC(C)(C)C)CC3)cccc12 [COB223, tert-Butyl 3-(4-(3-(5-(dimethylamino)naphthalene-1-sulfonamido)propyl)piperazin-1-yl) propylcarbamate]
3T3 cells
  effect on cell proliferation: no effect
LLC/2 tumor; COB223-treated tumors (untreated 20%)
  tumors with necrotic areas larger than 15% of their surface: 60%
LLC/2 tumor; [2]
  density of the microvessels (CD31): significant decrease
  size (luminal surface) of the microvessels (CD31): significant decrease
LLC/2 tumor; tumor sections
  number of phospho-ERK1/2 and phospho-histone H3 positive cells: significantly decreased
PKCβI
  kinase inhibition: None of them was inhibited
[1]
  endothelial sprouting (CD31 immunostaining): complete inhibition
HMVECd cells
  cytotoxic concentrations: > 50 µM
